In data set [1] the test system is Plasmodium falciparum. In words: Antimalarial activity against Plasmodium falciparum 3D7 infected in ARh+ human erythrocytes after 42 to 48 hrs by Picogreen staining-based 96 well microplate assay. The format is functional, organism-based.
Data set [2] relates to Plasmodium falciparum. The data set can be described thus: Antimalarial activity against Plasmodium falciparum 3D7 infected in ARh+ human erythrocytes at 10 uM after 42 to 48 hrs by Picogreen staining-based 96 well microplate assay. Format: functional. As to conditions: read-out: GI.
Data set [3] concerns Plasmodium falciparum. In words: Antimalarial activity against Plasmodium falciparum 3D7 infected in ARh+ human erythrocytes at 1 uM after 42 to 48 hrs by Picogreen staining-based 96 well microplate assay. Format: functional. As to conditions: read-out: GI.
In data set [4] the test system is Plasmodium falciparum. In words: Antimalarial activity against Plasmodium falciparum 3D7 infected in ARh+ human erythrocytes at 0.01 uM after 42 to 48 hrs by Picogreen staining-based 96 well microplate assay. The format is functional. To be noted: read-out: GI.
The test system of data set [5] is Plasmodium falciparum. The data set can be described thus: Antimalarial activity against Plasmodium falciparum 3D7 infected in ARh+ human erythrocytes at 0.1 uM after 42 to 48 hrs by Picogreen staining-based 96 well microplate assay. As to conditions: read-out: GI. The format is functional.
For a further data set, the system named is hERG (KCNH2). The data set can be described thus: Selectivity index, ratio of IC50 for inhibition of human ERG expressed in Xenopus laevis oocytes to IC50 for Plasmodium falciparum 3D7. The format is toxicity, cell-based. As to conditions: read-out: Ratio IC50.
Data set [6] has as its target Voltage-gated inwardly rectifying potassium channel KCNH2 (Homo sapiens, UniProt Q12809). The data set can be described thus: Inhibition of human ERG expressed in Xenopus laevis oocytes by two-electrode voltage clamp assay. The format is cell-based. (In general: In two-electrode clamp one electrode senses voltage and the other passes current.)
For data set [7], the system named is Plasmodium falciparum. The data set can be described thus: Antiplasmodial activity against Plasmodium falciparum K1 at 0.002 to 100 ug/ml by serial drug dilution assay. The format is functional, organism-based.

pIC50: −log10 of the molar value.

Our source for the IC50, inhibition of growth and selectivity ratio values is ChEMBL document CHEMBL4177615 (Bioorg Med Chem, 2017).

Voltage-gated inwardly rectifying potassium channel KCNH2, sequence (Q12809 whole entry): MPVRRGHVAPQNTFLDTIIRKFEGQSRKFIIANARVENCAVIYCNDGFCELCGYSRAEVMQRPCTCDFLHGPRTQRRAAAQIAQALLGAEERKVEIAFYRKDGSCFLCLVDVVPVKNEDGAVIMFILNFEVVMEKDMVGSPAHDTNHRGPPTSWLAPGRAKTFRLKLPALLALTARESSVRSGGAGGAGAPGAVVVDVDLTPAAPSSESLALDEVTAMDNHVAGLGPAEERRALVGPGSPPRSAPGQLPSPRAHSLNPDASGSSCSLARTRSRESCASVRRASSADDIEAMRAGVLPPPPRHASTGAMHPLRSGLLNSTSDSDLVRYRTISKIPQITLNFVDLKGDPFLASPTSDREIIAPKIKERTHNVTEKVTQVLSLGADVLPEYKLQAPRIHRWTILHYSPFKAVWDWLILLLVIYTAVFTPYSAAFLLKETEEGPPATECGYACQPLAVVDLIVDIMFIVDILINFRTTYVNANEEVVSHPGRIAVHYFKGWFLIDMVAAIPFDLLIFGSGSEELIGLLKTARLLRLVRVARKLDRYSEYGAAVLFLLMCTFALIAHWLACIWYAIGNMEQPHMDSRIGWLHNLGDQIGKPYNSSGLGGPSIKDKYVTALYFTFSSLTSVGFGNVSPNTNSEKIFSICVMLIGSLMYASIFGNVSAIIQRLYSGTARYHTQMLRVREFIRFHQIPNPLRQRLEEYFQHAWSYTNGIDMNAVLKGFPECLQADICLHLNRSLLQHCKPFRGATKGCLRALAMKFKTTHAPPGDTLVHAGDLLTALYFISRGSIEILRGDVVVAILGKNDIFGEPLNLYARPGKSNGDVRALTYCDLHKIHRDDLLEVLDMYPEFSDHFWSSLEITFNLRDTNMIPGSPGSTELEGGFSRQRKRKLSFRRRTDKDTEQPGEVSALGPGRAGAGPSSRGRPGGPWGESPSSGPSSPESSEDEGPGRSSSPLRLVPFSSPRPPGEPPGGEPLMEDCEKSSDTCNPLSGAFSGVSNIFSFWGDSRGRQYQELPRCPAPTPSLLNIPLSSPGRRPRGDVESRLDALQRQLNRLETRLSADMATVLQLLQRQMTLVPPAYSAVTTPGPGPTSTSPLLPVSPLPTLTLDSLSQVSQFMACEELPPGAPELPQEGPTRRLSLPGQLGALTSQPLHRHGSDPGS

Usually pIC50 stands for the negative decadic logarithm of the IC50, by convention in mol/L. A lower pIC50 goes with a large IC50. In turn, `COc1ccc(CCN2CCC(Nc3nc4ccccc4n3Cc3ccc(F)cc3)C2)cc1` (stereo unspecified) gave a pIC50 with Plasmodium falciparum [1] of 5.27. Besides, the inhibition of growth at 10 µM in the data set with Plasmodium falciparum [2] turned out to be 67%. Further, the inhibition of growth at 1 µM with Plasmodium falciparum [3] is 14%. Also, in the data set with Plasmodium falciparum [4], the inhibition of growth at 0.01 µM is 0%. For the same molecule, the inhibition of growth at 0.1 µM in the data set with Plasmodium falciparum [5] is 0%.

`COc1ccc(CCN2CCN(c3nc4ccccc4n3Cc3ccc(F)cc3)CC2)cc1` had a pIC50 with Plasmodium falciparum [1] of 5.19. For the same molecule, the inhibition of growth at 10 µM with Plasmodium falciparum [2] amounted to 57%. The inhibition of growth at 1 µM in the data set with Plasmodium falciparum [3] came to 21%. Besides, the inhibition of growth at 0.01 µM with Plasmodium falciparum [4] was 0%. Further, in the data set on Plasmodium falciparum [5], the inhibition of growth at 0.1 µM is 0%.

`CCCCCCCCCCn1c(NC2CCN(CCc3ccc(OC)cc3)CC2)nc2ccccc21`: the pIC50 is 6.95 to 7.30 in the data set on Plasmodium falciparum [1] and 5.68 in data set [6]. Also, in the data set with Plasmodium falciparum [2], the inhibition of growth at 10 µM was 100%. In the data set on Plasmodium falciparum [3], the inhibition of growth at 1 µM is 100%. Moreover, in the data set with hERG (KCNH2), the selectivity ratio was 18.4. Besides, in the data set on Plasmodium falciparum [4], the inhibition of growth at 0.01 µM came out at 0%. Besides, the inhibition of growth at 0.1 µM in the data set on Plasmodium falciparum [5] worked out at 77%.

Turning to `COCn1c(NC2CCN(CCc3ccc(OC)cc3)CC2)nc2ccccc21`, in the data set on Plasmodium falciparum [1], the pIC50 was 5.17. Further, the inhibition of growth at 10 µM in the data set on Plasmodium falciparum [2] stood at 64%. In addition, the inhibition of growth at 1 µM in the data set with Plasmodium falciparum [3] was 5%. Also, the inhibition of growth at 0.01 µM in the data set with Plasmodium falciparum [4] is 0%. In addition, in the data set on Plasmodium falciparum [5], the inhibition of growth at 0.1 µM is 0%.

As to `CCCCCCCCn1c(NC2CCN(CCc3ccc(OC)cc3)CC2)nc2ccccc21`, the pIC50 was 7.53 to 7.54 in the data set on Plasmodium falciparum [1] and 5.49 in data set [6]. The inhibition of growth at 10 µM in the data set on Plasmodium falciparum [2] was 100%. In addition, the inhibition of growth at 1 µM in the data set with Plasmodium falciparum [3] was 96%. In addition, in the data set on hERG (KCNH2), the selectivity ratio worked out at 110. Besides, the inhibition of growth at 0.01 µM in the data set on Plasmodium falciparum [4] came to 4%. For the same molecule, the inhibition of growth at 0.1 µM in the data set with Plasmodium falciparum [5] was 93%.

Regarding `COc1ccc(CCN2CCC(Nc3nc4ccccc4n3CC3CCCCC3)CC2)cc1`, the pIC50 with Plasmodium falciparum [1] is 7.36 to 7.40; in data set [6], 8.49. In addition, in the data set with Plasmodium falciparum [2], the inhibition of growth at 10 µM stood at 100%. Further, the inhibition of growth at 1 µM in the data set with Plasmodium falciparum [3] worked out at 100%. In addition, the selectivity ratio in the data set on hERG (KCNH2) stood at 0.1. In addition, the inhibition of growth at 0.01 µM in the data set with Plasmodium falciparum [4] was determined as 1%. In addition, the inhibition of growth at 0.1 µM in the data set with Plasmodium falciparum [5] came to 80%.

`COc1ccc(CCN2CCC(Nc3nc4ccccc4n3Cc3ccc(F)cc3F)CC2)cc1`: the negative logarithm of the IC50 (pIC50) with Plasmodium falciparum [1] is 6.99 to 7.07; in data set [6], 6.75. For the same molecule, in the data set with Plasmodium falciparum [2], the inhibition of growth at 10 µM came to 80%. For the same molecule, the inhibition of growth at 1 µM with Plasmodium falciparum [3] turned out to be 100%. In addition, in the data set with hERG (KCNH2), the selectivity ratio is 1.7. For the same molecule, the inhibition of growth at 0.01 µM in the data set with Plasmodium falciparum [4] came to 0%. Moreover, the inhibition of growth at 0.1 µM in the data set with Plasmodium falciparum [5] came out at 55%.

On to `COc1ccc(CCN2CCC(Nc3nc4ccccc4n3Cc3ccc(Br)cc3)CC2)cc1`, for which, in the data set on Plasmodium falciparum [1], the pIC50 is 6.95. In the data set with Plasmodium falciparum [2], the inhibition of growth at 10 µM is 97%. Further, the inhibition of growth at 1 µM with Plasmodium falciparum [3] was 100%. The inhibition of growth at 0.01 µM with Plasmodium falciparum [4] was 0%. In addition, in the data set on Plasmodium falciparum [5], the inhibition of growth at 0.1 µM amounted to 47%.

With `CCC(CC)Cn1c(NC2CCN(CCc3ccc(OC)cc3)CC2)nc2ccccc21`, the negative logarithm of the IC50 (pIC50) in the data set on Plasmodium falciparum [1] was 6.62. In the data set with Plasmodium falciparum [2], the inhibition of growth at 10 µM amounted to 95%. In addition, the inhibition of growth at 1 µM in the data set with Plasmodium falciparum [3] amounted to 100%. Moreover, the inhibition of growth at 0.01 µM in the data set with Plasmodium falciparum [4] was determined as 0%. Also, in the data set on Plasmodium falciparum [5], the inhibition of growth at 0.1 µM was 16%.

Molecule `CCCn1c(NC2CCN(CCc3ccc(OC)cc3)CC2)nc2ccccc21` had a pIC50 in the data set with Plasmodium falciparum [1] of 6.38. Besides, the inhibition of growth at 10 µM in the data set with Plasmodium falciparum [2] is 100%. In the data set with Plasmodium falciparum [3], the inhibition of growth at 1 µM came to 82%. Besides, in the data set on Plasmodium falciparum [4], the inhibition of growth at 0.01 µM amounted to 0%. Moreover, the inhibition of growth at 0.1 µM in the data set with Plasmodium falciparum [5] is 3%.

With `COc1ccc(CCN2CCC(Nc3nc4ccccc4[nH]3)CC2)cc1`, the figures for the pIC50 (in the data set on Plasmodium falciparum [1]; in data set [6]) were 7.10 to 7.11 and 6.79, respectively. Also, the inhibition of growth at 10 µM with Plasmodium falciparum [2] was 100%. Also, the inhibition of growth at 1 µM in the data set with Plasmodium falciparum [3] is 100%. In addition, the selectivity ratio in the data set with hERG (KCNH2) stood at 2.1. Also, the inhibition of growth at 0.01 µM with Plasmodium falciparum [4] was 6%. For the same molecule, in the data set on Plasmodium falciparum [5], the inhibition of growth at 0.1 µM stood at 52%.

As to `COc1ccc(CCN2CCC(Nc3nc4ccccc4n3CCC(C)C)CC2)cc1`, the pIC50 in the data set with Plasmodium falciparum [1] was 7.04 to 7.55; in data set [6], 6.67. Also, the inhibition of growth at 10 µM in the data set with Plasmodium falciparum [2] was determined as 97%. In the data set with Plasmodium falciparum [3], the inhibition of growth at 1 µM came out at 100%. Also, the selectivity ratio in the data set on hERG (KCNH2) is 7.6. Besides, in the data set on Plasmodium falciparum [4], the inhibition of growth at 0.01 µM stood at 0%. Besides, the inhibition of growth at 0.1 µM with Plasmodium falciparum [5] is 54%.

The molecule `CCCCCCn1c(NC2CCN(CCc3ccc(OC)cc3)CC2)nc2ccccc21` gave a pIC50 with Plasmodium falciparum [1] of 7.52 to 7.54. In addition, in the data set on Plasmodium falciparum [2], the inhibition of growth at 10 µM was determined as 100%. In addition, the inhibition of growth at 1 µM in the data set on Plasmodium falciparum [3] came to 100%. For the same molecule, the inhibition of growth at 0.01 µM with Plasmodium falciparum [4] turned out to be 6%. The inhibition of growth at 0.1 µM with Plasmodium falciparum [5] worked out at 95%.

Turning to `COc1ccc(CCN2CCN(Cc3nc4ccccc4n3Cc3ccc(F)cc3)CC2)cc1`, in the data set on Plasmodium falciparum [1], the pIC50 is 5.33. Further, in the data set on Plasmodium falciparum [2], the inhibition of growth at 10 µM is 72%. The inhibition of growth at 1 µM in the data set on Plasmodium falciparum [3] is 12%. In addition, the inhibition of growth at 0.01 µM with Plasmodium falciparum [4] was 3%. In the data set on Plasmodium falciparum [5], the inhibition of growth at 0.1 µM was 0%.

`COc1ccc(CCN2CCC(Nc3nc4ccccc4n3Cc3ccccc3)CC2)cc1` showed a pIC50 with Plasmodium falciparum [1] of 6.46. The inhibition of growth at 10 µM in the data set on Plasmodium falciparum [2] amounted to 100%. Further, the inhibition of growth at 1 µM in the data set on Plasmodium falciparum [3] is 82%. Besides, in the data set with Plasmodium falciparum [4], the inhibition of growth at 0.01 µM was found to be 0%. Moreover, the inhibition of growth at 0.1 µM in the data set on Plasmodium falciparum [5] came to 14%.

Regarding `CN(C)CCC=C1c2ccccc2CCc2ccccc21` [AMITRIPTYLINE], in the data set with Plasmodium falciparum [7], the pIC50 was 6.30.

Take `COc1ccc(CCN2CCC(Nc3nc4ccccc4n3Cc3ccc(F)cc3)CC2)cc1` [ASTEMIZOLE]: in the data set on Plasmodium falciparum [1], the pIC50 is 6.77 to 6.79. Besides, the inhibition of growth at 10 µM in the data set with Plasmodium falciparum [2] was 99%. The inhibition of growth at 1 µM in the data set with Plasmodium falciparum [3] is 91%. Moreover, in the data set on Plasmodium falciparum [4], the inhibition of growth at 0.01 µM was found to be 0%. For the same molecule, the inhibition of growth at 0.1 µM in the data set with Plasmodium falciparum [5] amounted to 37%.

As for `OCCN1CCN(CCCN2c3ccccc3Sc3ccc(C(F)(F)F)cc32)CC1` [FLUPHENAZINE], the pIC50 with Plasmodium falciparum [7] is 6.30.

`CNCCC=C1c2ccccc2CCc2ccccc21` [NORTRIPTYLINE]: the pIC50 with Plasmodium falciparum [7] is 6.30.

In the data set on Plasmodium falciparum [7], `CN(C)CCCN1c2ccccc2Sc2ccccc21` [PROMAZINE] had a pIC50 of 6.30.

For `Fc1ccc(Cn2c(NC3CCNCC3)nc3ccccc32)cc1` [TECASTEMIZOLE], the pIC50 with Plasmodium falciparum [1] is 5.64. For the same molecule, the inhibition of growth at 10 µM with Plasmodium falciparum [2] was found to be 100%. The inhibition of growth at 1 µM in the data set on Plasmodium falciparum [3] is 17%. In addition, the inhibition of growth at 0.01 µM in the data set on Plasmodium falciparum [4] amounted to 5%. The inhibition of growth at 0.1 µM in the data set on Plasmodium falciparum [5] was determined as 0%.
